Results published in US20170066717A1, “NEW PHENYLAZETIDINECARBOXYLATE OR -CARBOXAMIDE COMPOUNDS” (INVENTIVA, priority 2014, published 2017).

Tests used:
NURR-1/RXRα = target: T1, NURR-1/RXRα (Homo sapiens, UniProt P19793); test: Transactivation test, NURR-1-Gal4/RXRα, luciferase reporter in Cos-7 cells; assay type: cell-based; conditions: for Emax: COS-7, induction level relative to reference XCT0135908 at 2×10^−5 M (=100%), read-out: hNurr1_RXRaFL Emax (%); for EC50: Cos-7 cells, NURR-1-Gal4/RXRα, luciferase reporter, read-out: hNurr1_RXRaFL EC50
T1 construct: expressed in transfected cells; host or cells: Cos-7 cells

NURR-1/RXRγ = target: T2, NURR-1/RXRγ (Homo sapiens, UniProt P48443); test: Transactivation test, NURR-1-Gal4/RXRγ, luciferase reporter in Cos-7 cells; assay type: cell-based; conditions: for Emax: COS-7, induction level relative to reference XCT0135908 at 2×10^−5 M (=100%), read-out: hNurr1_RXRgFL Emax (%); for EC50: Cos-7 cells, NURR-1-Gal4/RXRγ, luciferase reporter, read-out: hNurr1_RXRgFL EC50
T2 construct: expressed in transfected cells; host or cells: Cos-7 cells

[1] = induction level relative to reference XCT0135908 at 2×10^−5 M (=100%)

T2 sequence (P48443 whole entry, the tested form may be a part): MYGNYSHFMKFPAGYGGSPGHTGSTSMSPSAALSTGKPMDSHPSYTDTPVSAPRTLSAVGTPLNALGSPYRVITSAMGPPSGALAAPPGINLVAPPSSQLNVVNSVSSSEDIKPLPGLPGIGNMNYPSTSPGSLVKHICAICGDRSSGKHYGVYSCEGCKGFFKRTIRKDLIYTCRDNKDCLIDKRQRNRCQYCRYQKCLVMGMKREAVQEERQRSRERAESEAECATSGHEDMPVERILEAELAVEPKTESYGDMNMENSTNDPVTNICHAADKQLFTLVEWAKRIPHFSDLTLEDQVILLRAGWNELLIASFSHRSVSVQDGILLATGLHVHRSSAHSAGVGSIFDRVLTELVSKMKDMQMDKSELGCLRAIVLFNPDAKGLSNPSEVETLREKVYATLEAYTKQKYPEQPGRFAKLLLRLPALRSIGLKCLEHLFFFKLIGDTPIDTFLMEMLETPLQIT
T2 sequence (P43354 whole entry partner, the tested form may be a part): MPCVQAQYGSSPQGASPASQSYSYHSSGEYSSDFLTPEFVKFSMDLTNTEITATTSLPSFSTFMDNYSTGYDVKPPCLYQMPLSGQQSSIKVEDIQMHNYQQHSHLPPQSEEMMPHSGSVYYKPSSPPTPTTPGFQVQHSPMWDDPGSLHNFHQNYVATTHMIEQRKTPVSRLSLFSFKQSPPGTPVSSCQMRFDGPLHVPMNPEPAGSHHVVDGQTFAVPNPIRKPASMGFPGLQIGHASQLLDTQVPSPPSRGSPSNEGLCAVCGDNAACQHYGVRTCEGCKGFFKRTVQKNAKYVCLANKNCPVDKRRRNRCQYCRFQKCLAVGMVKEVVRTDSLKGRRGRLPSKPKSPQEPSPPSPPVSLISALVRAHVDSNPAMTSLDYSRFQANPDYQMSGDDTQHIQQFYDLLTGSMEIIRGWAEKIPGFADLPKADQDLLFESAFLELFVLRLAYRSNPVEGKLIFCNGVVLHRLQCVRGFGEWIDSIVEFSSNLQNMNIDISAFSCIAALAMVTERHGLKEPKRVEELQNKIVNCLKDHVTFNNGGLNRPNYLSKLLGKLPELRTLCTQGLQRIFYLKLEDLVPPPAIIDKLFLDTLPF
T2 sequence (P04386 1-147 partner limits assumed): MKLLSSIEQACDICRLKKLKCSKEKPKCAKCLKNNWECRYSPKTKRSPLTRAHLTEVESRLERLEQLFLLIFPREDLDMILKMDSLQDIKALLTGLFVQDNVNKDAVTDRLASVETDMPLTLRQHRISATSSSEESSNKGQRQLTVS
T1 sequence (P19793 whole entry, the tested form may be a part): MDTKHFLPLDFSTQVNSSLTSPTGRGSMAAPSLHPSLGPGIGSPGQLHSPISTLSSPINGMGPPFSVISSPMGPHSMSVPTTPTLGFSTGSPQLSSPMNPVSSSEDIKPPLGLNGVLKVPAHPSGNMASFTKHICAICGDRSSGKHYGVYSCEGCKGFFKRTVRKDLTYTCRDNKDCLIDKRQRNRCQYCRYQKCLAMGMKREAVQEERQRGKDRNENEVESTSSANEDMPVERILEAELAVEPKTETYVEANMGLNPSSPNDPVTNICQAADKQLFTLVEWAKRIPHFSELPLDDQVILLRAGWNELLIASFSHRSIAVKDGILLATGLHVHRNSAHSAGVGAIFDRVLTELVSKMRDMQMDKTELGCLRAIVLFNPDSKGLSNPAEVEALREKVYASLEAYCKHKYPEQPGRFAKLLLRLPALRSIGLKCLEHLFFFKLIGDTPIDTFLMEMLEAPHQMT
T1 sequence (P43354 whole entry partner, the tested form may be a part): as the sequence (P43354 whole entry partner, the tested form may be a part) above
T1 sequence (P04386 1-147 partner limits assumed): as the sequence (P04386 1-147 partner limits assumed) above

| Compound | Emax (NURR-1/RXRα) [%] | EC50 (NURR-1/RXRα) [nM] | melting point [°C] | Emax (NURR-1/RXRγ) [%] | EC50 (NURR-1/RXRγ) [nM] | hNurr1_RXRaFL Emax (%) (NURR-1/RXRα; [1]) | hNurr1_RXRgFL Emax (%) (NURR-1/RXRγ; [1]) |
| --- | --- | --- | --- | --- | --- | --- | --- |
| O=C(O)C1CN(c2cccc(-c3cc(C(F)(F)F)nc4cc(Cl)ccc34)c2)C1 [Example 82, 1-[3-[7-chloro-2-(trifluoromethyl)-4-quinolyl]phenyl]azetidine-3-carboxylic acid] | 110 | 31 | 98 to 101 | 99 | 72 |  |  |
| COc1cc2c(c(-c3cccc(N4CC(C(=O)[O-])C4)c3)c1)NCC(C)(C)O2.[Na+] [Example 193, sodium 1-[3-(7-methoxy-2,2-dimethyl-3,4-dihydro-1,4-benzoxazin-5-yl)phenyl]azetidine-3-carboxylate] | 109 | 1170 | 144 to 152 | 85 | 799 |  |  |
| O=C(O)C1CN(c2cccc(-n3cc(CC4CCC4)c4cc(C(F)(F)F)ccc43)c2)C1 [Example 126, 1-[3-[3-(cyclobutylmethyl)-5-(trifluromethyl)indol-1-yl]phenyl]azetidine-3-carboxylc acid] | 128 | 1 | 58 to 64 | 116 | 3 |  |  |
| O=C(O)C1CN(c2cccc(-n3cc(CN4CCOCC4)c4cc(C(F)(F)F)ccc43)c2)C1 [Example 132, 1-[3-[3-(morpholinomethyl)-5-(trifluoromethyl)indol-1-yl]phenyl]azetidine-3-carboxylic acid] | 97 | 61 | 93 to 98 | 132 | 133 |  |  |
| O=C(O)C1CN(c2cccc(-c3cc(C(F)(F)F)cc4c3NCC3(CCC3)O4)c2)C1 [Example 62, 1-[3-[7-(trifluoromethyl)spiro[3,4-dihydro-1,4-benzoxazine-2,1′-cyclobutane]-5-yl]phenyl]azetidine-3-carboxylic acid] | 97 | 4 | 80 to 85 | 107 | 7 |  |  |
| O=C(O)C1CN(c2cccc(N3c4ccc(C(F)(F)F)cc4C4CC43)c2)C1 (stereo not shown) [Example 143, 1-[3-[5-(trifluoromethyl)-1a,6b-dihydro-1H-cyclopropa[b]indol-2-yl]phenyl]azetidine-3-carboxylic acid] | 97 | 18 | 67 to 71 |  | 45 |  |  |
| CC1(C)CN(c2cccc(N3CC(C(=O)O)C3)c2)c2ccccc2O1 [Example 119, 1-[3-(2,2-dimethyl-3H-1,4-benzoxazin-4-yl)phenyl]azetidine-3-carboxylic acid] | 101 | 238 | 59 to 64 | 94 | 512 |  |  |
| CC(C)c1cc2c(c(-c3cccc(N4CC(C(=O)O)C4)c3)c1)NCC(C)(C)O2 [Example 191, 1-[3-(7-isopropyl-2,2-dimethyl-3,4-dihydro-1,4-benzoxazin-5-yl)phenyl]azetidine-3-carboxylic acid] | 90 | 31 | 78 to 83 | 91 | 47 |  |  |
| CC1(C)CNc2c(cc(OC(F)(F)F)cc2-c2cccc(N3CC(C(=O)O)C3)c2)O1 [Example 188, 1-[3-[2.2-dimethyl-7-(trifluoromethoxy)-3,4-dihydro-1,4-benzoxazin-5-yl]phenyl]azetidine-3-carboxylic acid] | 100 | 7 | 67 to 74 | 98 | 9 |  |  |
| CCC1CNc2c(cc(C(F)(F)F)cc2-c2cccc(N3CC(C(=O)O)C3)c2)O1 (stereo not shown) [Example 66, 1-[3-[2-ethyl-7-(trifluoromethyl)-3,4-dihydro-2H-1,4-benzoxazin-5-yl]phenyl]azetidine-3-carboxylic acid] | 98 | 8 | 115 to 121 | 95 | 25 |  |  |
| Cc1cc2c(cc1-c1cccc(N3CC(C(=O)O)C3)c1)C(C)(C)CCC2(C)C [Example 85, 1-[3-(1,1,4,4,7-pentamethyltetralin-6-yl)phenyl]azetidine-3-carboxylic acid] | 112 | 19 | 130 to 141 | 116 | 49 |  |  |
| CCC1Oc2cc(C(F)(F)F)ccc2N(c2cccc(N3CC(C(=O)O)C3)c2)C1=O (stereo not shown) [Example 123, 1-[3-[2-ethyl-3-oxo-7-(trifluromethyl)-1,4-benzoxazin-4-yl]phenyl]azetidine-3-carboxylic acid] | 90 | 121 | 148 to 152 | 77 | 37 |  |  |

More lines, now with the values ahead:

| Emax (NURR-1/RXRα) [%] | EC50 (NURR-1/RXRα) [nM] | melting point [°C] | Emax (NURR-1/RXRγ) [%] | EC50 (NURR-1/RXRγ) [nM] | hNurr1_RXRaFL Emax (%) (NURR-1/RXRα; [1]) | hNurr1_RXRgFL Emax (%) (NURR-1/RXRγ; [1]) | Compound |
| --- | --- | --- | --- | --- | --- | --- | --- |
| 95 | 101 | 96 to 100 | 98 | 349 |  |  | CC1(C)Cc2cc(C(F)(F)F)ccc2N(c2cccc(N3CC(C(=O)O)C3)c2)C1=O [Example 259, 1-[3-[3,3-dimethyl-2-oxo-6-(trifluoromethyl)-4H-quinolin-1-yl]phenyl]azetidine-3-carboxylic acid] |
| 83 | 58 | 70 to 80 | 89 | 34 |  |  | CC1(C)Cc2cc(Cl)ccc2N(c2cccc(N3CC(C(=O)[O-])C3)c2)C1.[Na+] [Example 243, sodium 1-[3-(6-chloro-3,3-dimethyl-2,4-dihydroquinolin-1-yl)phenyl]azetidine-3-carboxylate] |
| 93 | 21 | 70 to 75 | 98 | 63 |  |  | COc1cc(N2CC(C(=O)O)C2)cc(N2CC(C)(C)Oc3cc(C(F)(F)F)ccc32)c1 [Example 236, 1-[3-[2,2-dimethyl-7-(trifluoromethyl)-3H-1,4-benzoxazin-4-yl]-5-methoxyphenyl]azetidine-3-carboxylic acid] |
| 102 | 92 | 160 to 188 | 107 | 174 |  |  | CCc1ccc2c(c1)OC(C)(C)CN2c1cccc(N2CC(C(=O)[O-])C2)c1.[Na+] [Example 235, sodium 1-[3-(7-ethyl-2,2-dimethyl-3H-1,4-benzoxazin-4-yl)phenyl]azetidine-3-carboxylate] |
| 102 | 236 | 159 to 161 | 107 | 755 |  |  | CCC1(CC)C(=O)N(c2cccc(N3CC(C(=O)O)C3)c2)c2ccc(C(F)(F)F)cc21 [Example 258, 1-[3-[3,3-diethyl-2-oxo-5-(trifluoromethyl)indolin-1-yl]phenyl]azetidine-carboxylic acid] |
| 98 | 8 | 70 to 80 | 115 | 13 |  |  | CC1N(c2cccc(N3CC(C(=O)O)C3)c2)c2ccc(C(F)(F)F)cc2OC1(C)C (stereo not shown) [Example 216, 1-[3-[2,2,3-trimethyl-7-(trifluoromethyl)-3H-1,4-benzoxazin-4-yl]phenyl]azetidine-3-carboxylate acid] |
|  | 73 | 57 to 70 |  | 126 | 58 | 46 | CC(C)CC1Oc2cc(C(F)(F)F)ccc2N(c2cccc(N3CC(C(=O)O)C3)c2)C1=O (single isomer, unassigned; isomer 2) [Example 246-2, 1-[3-[2-isobutyl-3-oxo-7-(trofluormethyl)-1,4-benzoxazin-4-yl]phenyl]azetidine-3-carboxylic acid, isomer 2] |
| 56 | 255 | 55 to 82 | 56 | 551 |  |  | CC(C)c1ccc2c(c1)c1c(n2-c2cccc(N3CC(C(=O)O)C3)c2)CCC(C)(C)C1 [Example 260, 1-[3-(6-isopropyl-3,3-dimethyl-2,4-1H-carbzaol-9-yl)phenyl]azetidine-3-carboxylic acid] |
| 104 | 78 | 68 to 78 | 93 | 181 |  |  | Cc1ccc2c(c1)OC(C)(C)CN2c1cccc(N2CC(C(=O)O)C2)c1 [Example 227, 1-[3-(2,2,7-trimethyl-3H-1,4-benzoxazin-4-yl)phenyl]azetidine-3-carboxylic acid] |
| 87 | 3 | 163 to 173 | 84 | 3 |  |  | CC1(C)CNc2c(cc(C(C)(C)C)cc2-c2cccc(N3CC(C(=O)[O-])C3)c2)C1.[Na+] [Example 204, sodium 1-[3-(6-tert-butyl-3,3-dimethyl-2,4-dihydro-1H-quinolin-8-yl)phenyl]azetidine-3-carboxylate] |
| 97 | 386 | 48 to 51 | 99 | 465 |  |  | CC(C)c1ccc2c(c1)OCCN2c1cccc(N2CC(C(=O)O)C2)c1 [Example 232, 1-[3-(7-isopropyl-2,3-dihydro-1,4-benzoxazin-4-yl)phenyl]azetidine-3-carboxylic acid] |
| 104 | 243 | 67 to 71 | 104 | 420 |  |  | CC1(C)CN(c2cccc(N3CC(C(=O)O)C3)c2)c2ccc(C3CC3)cc2O1 [Example 229, 1-[3-(7-cyclopropyl-2,2-dimethyl-3H-1,4-benzoxazin-4yl)phenyl]azetidine-3-carboxylic acid] |
| 112 | 1 | 201 to 214 | 113 | ~1 |  |  | CCC1(C)C=C(c2cccc(N3CC(C(=O)[O-])C3)c2)c2ccc(C(F)(F)F)cc2O1.[Na+] (stereo not shown) [Example 266, sodium 1-[3-[2-ethyl-2-methyl-7-(trifluoromethyl)chromen-4-yl]phenyl]azetidine-3-carboxylate] |
